Reference: DBAASP
Values after ≈ are worked out from the molar mass of the structure shown. Values joined by “and” are separate entries in the source; they are usually repeats but may differ in a detail not shown here. Equal values may be shown once.

How the values were obtained:
Assay in all cases: ≥ marks a high value that may be exact or a test limit, other limits are often not marked, values filed in µg/mL are converted to µM
Escherichia coli K-12 = system: Escherichia coli K-12
[1] = system: Staphylococcus aureus USA 300
[2] = system: Staphylococcus aureus ATCC 2592
[3] = system: Bacillus subtilis ATCC 6633
[4] = system: Escherichia coli ATCC 25922
[5] = system: Candida albicans ATCC 90028
Acinetobacter baumannii = system: Acinetobacter baumannii
[6] = system: Staphylococcus aureus ATCC 25923
[7] = system: Escherichia coli ATCC 25726
[8] = system: Pseudomonas aeruginosa ATCC 9027
[9] = system: Candida albicans ATCC 2002
Bacillus subtilis 168 = system: Bacillus subtilis 168
[10] = system: Pseudomonas aeruginosa PAO1
Bacillus subtilis = system: Bacillus subtilis

CC[C@H](C)[C@H](NC(=O)[C@H](CCCN=C(N)N)NC(=O)[C@H](CCC(N)=O)NC(=O)[C@@H](NC(=O)[C@@H](NC(=O)[C@H](CCCN=C(N)N)NC(=O)[C@H](CCCCN)NC(=O)[C@H](Cc1ccccc1)NC(=O)CN)[C@@H](C)CC)C(C)C)C(=O)N[C@@H](C)C(=O)N[C@@H](CC(=O)O)C(=O)N[C@@H](Cc1ccccc1)C(=O)N[C@@H](CC(C)C)C(=O)N[C@@H](CCCN=C(N)N)C(=O)N[C@@H](CC(N)=O)C(=O)N[C@@H](CC(C)C)C(=O)N[C@H](C(N)=O)C(C)C [GFKRIVQRIADFLRNLV]
MIC (Escherichia coli K-12): ≥ 60 µM
MIC [1]: 7.5 µM (≈ 15.3 µg/mL)

CC[C@H](C)[C@H](NC(=O)[C@H](CC(C)C)NC(=O)[C@H](C)NC(=O)[C@@H]1CCCN1C(=O)[C@H](CCCN=C(N)N)NC(=O)[C@@H](N)Cc1ccccc1)C(=O)N[C@H](C(=O)N[C@@H](CCCN=C(N)N)C(=O)N[C@H](C(=O)N[C@@H](CCCCN)C(=O)NCC(=O)N[C@H](C(=O)N[C@@H](CCCN=C(N)N)C(=O)N[C@@H](CC(C)C)C(=O)O)[C@@H](C)O)[C@@H](C)O)C(C)C [FRPALIVRTKGTRL]
MIC (Escherichia coli K-12): 30 µM (≈ 48.8 µg/mL)
MIC [1]: 30 µM (≈ 48.8 µg/mL)

CC[C@H](C)[C@H](NC(=O)[C@@H](NC(=O)[C@@H](N)Cc1ccccc1)[C@@H](C)CC)C(=O)N[C@H](C(=O)NCC(=O)N[C@@H](CC(C)C)C(=O)N[C@H](C(=O)N[C@@H](CCCN=C(N)N)C(=O)NCC(=O)N[C@@H](CC(C)C)C(=O)N[C@H](C(=O)N[C@@H](CCCCN)C(=O)N[C@@H](CC(C)C)C(=O)N[C@@H](Cc1ccccc1)C(N)=O)[C@@H](C)O)C(C)C)[C@@H](C)O [FIITGLVRGLTKLF]
MIC [2]: 7.92 µM (≈ 12.5 µg/mL)
MIC [3]: 15.8 µM (≈ 25 µg/mL)

CC[C@H](C)[C@H](NC(=O)CN)C(=O)NCC(=O)N[C@@H](CCCN=C(N)N)C(=O)N[C@@H](CCCCN)C(=O)N[C@@H](Cc1ccccc1)C(=O)N[C@@H](CC(C)C)C(=O)NCC(=O)NCC(=O)N[C@H](C(=O)N[C@@H](CCCCN)C(=O)N[C@H](C(=O)N[C@H](C(=O)N[C@@H](Cc1ccccc1)C(=O)N[C@@H](CCCN=C(N)N)C(=O)NCC(=O)NCC(=O)N[C@H](C(=O)N[C@@H](CCCCN)C(=O)N[C@@H](CC(=O)O)C(=O)N[C@@H](Cc1ccccc1)C(=O)N[C@@H](C)C(=O)N[C@@H](CO)C(=O)N[C@@H](CCCCN)C(=O)N[C@@H](Cc1cnc[nH]1)C(=O)N[C@@H](CC(C)C)C(=O)N[C@@H](Cc1ccc(O)cc1)C(N)=O)C(C)C)[C@@H](C)O)[C@@H](C)O)C(C)C [GIGRKFLGGVKTTFRGGVKDFASKHLY]
MIC [2]: ≥ 75 µM
MIC [4]: 150 µM and 100 µM

CC[C@H](C)[C@H](NC(=O)CN)C(=O)N[C@@H](Cc1c[nH]c2ccccc12)C(=O)N[C@@H](CCCCN)C(=O)N[C@H](C(=O)N[C@H](C(=O)N[C@@H](CCCCN)C(=O)N[C@@H](CO)C(=O)N[C@@H](CCSC)C(=O)NCC(=O)N[C@@H](CCCCN)C(=O)N[C@H](C(=O)N[C@@H](Cc1ccccc1)C(=O)N[C@@H](C)C(=O)NCC(=O)N[C@@H](C)C(=O)N[C@H](C(=O)N[C@@H](CC(C)C)C(=O)N[C@@H](CCC(N)=O)C(=O)N[C@@H](CC(N)=O)C(=O)N[C@@H](CC(C)C)C(N)=O)[C@@H](C)CC)C(C)C)[C@@H](C)CC)[C@@H](C)O [GIWKTIKSMGKVFAGAILQNL]
MIC [5]: 12.5 µM (≈ 28.4 µg/mL)
MIC (Acinetobacter baumannii): 12.5 µM (≈ 28.4 µg/mL)
MIC [6]: 6.25 µM (≈ 14.2 µg/mL)
MIC [7]: 12.5 µM (≈ 28.4 µg/mL)

CC[C@H](C)[C@H](NC(=O)CNC(=O)[C@@H]1CCCN1C(=O)CNC(=O)[C@H](CC(C)C)NC(=O)[C@H](CC(N)=O)NC(=O)[C@H](C)NC(=O)[C@H](Cc1ccccc1)NC(=O)[C@H](CC(N)=O)NC(=O)[C@H](C)NC(=O)[C@H](CCCN=C(N)N)NC(=O)[C@H](Cc1ccccc1)NC(=O)[C@H](C)NC(=O)[C@@H](NC(=O)[C@H](CCCN=C(N)N)NC(=O)[C@H](Cc1c[nH]c2ccccc12)NC(=O)[C@H](Cc1ccc(O)cc1)NC(=O)[C@H](CC(=O)O)NC(=O)[C@H](C)NC(=O)[C@H](CC(C)C)NC(=O)CN)[C@@H](C)O)C(=O)N[C@@H](CCCN=C(N)N)C(=O)N[C@H]1CSSC[C@@H](C(=O)O)NC(=O)[C@H](CCCN=C(N)N)NC(=O)[C@H](C)NC(=O)[C@H](CO)NC(=O)[C@H](CCCCN)NC1=O [GLADYWRTAFRANFANLGPGIRCKSARC]
MIC [2]: 1 µM (≈ 3.11 µg/mL)
MIC [4]: 2 µM (≈ 6.23 µg/mL)
MIC [8]: 6 µM (≈ 18.7 µg/mL)
MIC [9]: ≥ 32 µM

CC[C@H](C)[C@H](NC(=O)[C@H](C)NC(=O)[C@@H]1CCCN1C(=O)[C@@H](NC(=O)[C@@H](NC(=O)[C@H](Cc1cnc[nH]1)NC(=O)[C@H](CO)NC(=O)[C@@H](NC(=O)[C@@H](NC(=O)[C@H](CO)NC(=O)CNC(=O)[C@H](CC(C)C)NC(=O)[C@H](CC(C)C)NC(=O)CNC(=O)[C@H](CC(C)C)NC(=O)[C@H](CC(C)C)NC(=O)CN)C(C)C)C(C)C)C(C)C)C(C)C)C(=O)N[C@H](C(=O)NCC(=O)N[C@@H](Cc1cnc[nH]1)C(=O)N[C@@H](Cc1ccccc1)C(N)=O)C(C)C [GLLGLLGSVVSHVVPAIVGHF]
MIC (Bacillus subtilis 168): 25 µM (≈ 51.8 µg/mL)
MIC (Escherichia coli K-12): ≥ 100 µM
MIC [1]: 6.2 µM (≈ 12.8 µg/mL)
MIC [10]: > 100 µM

CC[C@H](C)[C@H](NC(=O)[C@H](CCCCN)NC(=O)[C@H](CCCN=C(N)N)NC(=O)CNC(=O)[C@H](CC(C)C)NC(=O)[C@H](CO)NC(=O)[C@H](CCCN=C(N)N)NC(=O)[C@H](CC(C)C)NC(=O)CNC(=O)CN)C(=O)N[C@@H](CC(C)C)C(=O)N[C@@H](CCCN=C(N)N)C(=O)N[C@@H](C)C(=O)N[C@@H](Cc1c[nH]c2ccccc12)C(=O)N[C@@H](CCCCN)C(=O)N[C@@H](CCCCN)C(=O)N[C@@H](Cc1ccc(O)cc1)C(=O)NCC(=O)O [GGLRSLGRKILRAWKKYG]
MIC (Bacillus subtilis 168): 8 µM (≈ 16.5 µg/mL)
MIC (Escherichia coli K-12): 2 µM (≈ 4.12 µg/mL)

CC[C@H](C)[C@H](NC(=O)[C@H](CCC(N)=O)NC(=O)[C@H](CCCCN)NC(=O)CNC(=O)[C@H](CC(C)C)NC(=O)[C@H](CCC(N)=O)NC(=O)CNC(=O)[C@H](CC(C)C)NC(=O)[C@H](CCCCN)NC(=O)[C@H](C)NC(=O)[C@H](CCC(=O)O)NC(=O)[C@H](CCCCN)NC(=O)[C@@H](NC(=O)CNC(=O)[C@@H](NC(=O)[C@@H](NC(=O)[C@@H](NC(=O)[C@@H](N)CO)[C@@H](C)CC)[C@@H](C)CC)[C@@H](C)O)[C@@H](C)O)C(=O)N[C@@H](C)C(=O)N[C@H]1CSSC[C@@H](C(=O)O)NC(=O)[C@H]([C@@H](C)O)NC(=O)[C@H](CC(N)=O)NC(=O)CNC(=O)[C@H](CC(C)C)NC(=O)[C@H](CCCN=C(N)N)NC1=O [SIITGTKEAKLGQLGKQIACRLGNTC]
MIC [2]: 5.55 µM (≈ 15 µg/mL)
MIC [4]: 44.4 µM (≈ 120 µg/mL)
MIC (Bacillus subtilis): ≥ 44.4 µM
MIC [9]: 11.1 µM (≈ 30 µg/mL)

CC[C@H](C)[C@H](NC(=O)[C@H](CCC(N)=O)NC(=O)[C@H](CCCCN)NC(=O)[C@H](Cc1c[nH]c2ccccc12)NC(=O)[C@H](CC(C)C)NC(=O)[C@H](CCC(N)=O)NC(=O)[C@@H]1CCCN1C(=O)[C@H](CC(C)C)NC(=O)[C@H](CCCCN)NC(=O)[C@H](C)NC(=O)[C@H](CCC(=O)O)NC(=O)[C@H](CCCCN)NC(=O)[C@@H](NC(=O)[C@H](CCSC)NC(=O)[C@@H](NC(=O)[C@@H](NC(=O)[C@@H](NC(=O)[C@@H](N)CO)[C@@H](C)CC)[C@@H](C)CC)[C@@H](C)O)[C@@H](C)O)C(=O)N[C@@H](C)C(=O)N[C@H]1CSSC[C@@H](C(=O)O)NC(=O)[C@H]([C@@H](C)O)NC(=O)[C@H](CC(N)=O)NC(=O)CNC(=O)[C@H](CC(C)C)NC(=O)[C@H](CCCN=C(N)N)NC1=O [SIITMTKEAKLPQLWKQIACRLGNTC]
MIC [2]: 5.09 µM (≈ 15 µg/mL)
MIC [4]: 10.2 µM (≈ 30 µg/mL)
MIC (Bacillus subtilis): 20.4 µM (≈ 60 µg/mL)
MIC [9]: 5.09 µM (≈ 15 µg/mL)

CSCC[C@H](NC(=O)[C@H](CCSC)NC(=O)[C@H](CCCCN)NC(=O)CNC(=O)[C@@H](NC(=O)[C@@H](NC(=O)[C@H](CCCCN)NC(=O)[C@H](CC(C)C)NC(=O)CNC(=O)[C@H](Cc1ccccc1)NC(=O)[C@H](CCCCN)NC(=O)[C@H](Cc1ccccc1)NC(=O)[C@H](C)NC(=O)[C@H](CCCCN)NC(=O)CNC(=O)[C@H](CC(C)C)NC(=O)[C@H](CC(C)C)NC(=O)[C@H](CO)NC(=O)CNC(=O)[C@H](CC(C)C)NC(=O)CN)[C@@H](C)O)C(C)C)C(=O)N[C@@H](C)C(=O)NCC(=O)N[C@@H](C)C(=O)N1CCC[C@H]1C(=O)N[C@@H](CCCN=C(N)N)C(=O)N[C@@H](CCC(=O)O)C(=O)N[C@@H](CCC(N)=O)C(=O)O [GLGSLLGKAFKFGLKTVGKMMAGAPREQ]
MIC [5]: 25 µM (≈ 72.3 µg/mL)
MIC [6]: 6 µM (≈ 17.4 µg/mL)
MIC [7]: 12.5 µM (≈ 36.2 µg/mL)

CC[C@H](C)[C@H](N)C(=O)N[C@H](C(=O)N[C@H](C(=O)N1CCC[C@H]1C(=O)N1CCC[C@H]1C(=O)N[C@H](C(=O)N[C@H](C(=O)N[C@@H](CCCCN)C(=O)N[C@@H](CC(=O)O)C(=O)N[C@H](C(=O)N[C@@H](CC(C)C)C(=O)N[C@@H](CCCCN)C(=O)N[C@@H](CCCCN)C(=O)N[C@@H](Cc1ccccc1)C(=O)N[C@@H](Cc1ccccc1)C(=O)N[C@@H](CCCCN)C(=O)NCC(=O)NCC(=O)N[C@H](C(=O)N[C@@H](C)C(=O)NCC(=O)N[C@H](C(=O)N[C@@H](CCSC)C(=O)NCC(=O)N[C@@H](CCC(N)=O)C(=O)O)C(C)C)[C@@H](C)CC)[C@@H](C)O)C(C)C)[C@@H](C)CC)[C@@H](C)CC)[C@@H](C)O [ITIPPIVKDTLKKFFKGGIAGVMGQ]
MIC [6]: 40 µM (≈ 106 µg/mL)
MIC [7]: ≥ 40 µM
